According to US11230535B2, “CFTR regulators and methods of use thereof” (THE REGENTS OF THE UNIVERSITY OF CALIFORNIA, priority 2015, dated 2022):
Read-outs that look alike come from different tables or passages of the source. Positions of bridges follow the written chain, without caps; N, C: chain ends. Residues, ends and D or L forms follow the SMILES beside them.

Assays:
[1] = system: CFTR activity at the ocular surface; test: Ocular surface potential difference (PD) in living mice; type: in vivo, mouse; conditions: CF mice lacking functional CFTR
Description: (§1) Open-circuit transepithelial PD were measured continuously in anesthetized mice in response to serial perfusions of different solutions over the ocular surface, as described (21). Mice were anesthetized with Avertin (2,2,2-tribromoethanol, 125 mg/kg intraperitoneal, Sigma-Aldrich, St. Louis, Mo., USA), and core temperature was maintained at 37° C. using a heating pad. Eyes were oriented with the cornea and conjunctiva facing upward and exposed by retracting the eyelid with cross-action forceps. Solutions were isosmolar (320±10 mOsM; compositions provided in ref. 21) and contained 10μ[…] Qindomethacin to prevent CFTR activation by prostaglandins. The ocular surface was perfused at 6 mL/min through plastic tubing using a multireservoir gravity pinch-valve system (ALA Scientific, Westbury, N.Y., USA) and variable-flow peristaltic pump (medium flow model; Fisher Scientific, Fair Lawn, N.J., USA). A probe catheter was fixed 1 mm above the cornea using a micropositioner and a suction cannula was positioned 3 mm from the orbit. The measuring electrode was in contact to the perfusion catheter and connected to a high-impedance voltmeter (IsoMilivolt Meter; WPI). The reference electrode was grounded via a winged 21-gauge needle filled with isosmolar saline, and inserted subcutaneously in the abdomen. Measuring and reference electrodes consisted of Ag/AgCl with 3 M KCl agar bridges.
An open-circuit potential difference (PD) method developed in our lab was used to evaluate compound activity at the ocular surface in vivo, as depicted in FIG. 3A (21). Cl^− channel function was quantified by measuring PD during continuous perfusion of the ocular surface with a series of solutions that imposed a transepithelial Cl^− gradient and contained various channel agonists and/or inhibitors. The ocular surface was first perfused with isosmolar saline to record the baseline PD. Amiloride was then added to the perfusate, followed by exchange to a low Cl^− solution in which Cl^− with an impermeant anion, gluconate. These maneuvers allow for direct visualization of CFTR activation in response to addition of candidate CFTR activators.
as §1, with “Ocular surface potential difference measurements. Open-circuit” for “Open-circuit”, “indomethacin” for “Qindomethacin”, “Measuring and reference electrodes consisted of Ag/AgCl with 3 M KCl agar bridges.” left out

human wild-type CFTR [2] = target: T1, human wild-type CFTR (Homo sapiens, UniProt P13569); test: Short-circuit current in FRT cells expressing wild-type human CFTR; type: cell-based; design: expressed in transfected cells; conditions: 100% = 20 μM forskolin
Description: Short-circuit current was measured in FRT cells stably expressing wild-type human CFTR cultured on porous filters as described. The basolateral solution contained 130 mM NaCl, 2.7 mM KCl, 1.5 mM KH2PO4, 1 mM CaCl2, 0.5 mM MgCl2, 10 mM glucose, and 10 mM Na-HEPES (pH 7.3, 37° C.). In the apical solution 65 mM NaCl was replaced by Na gluconate, and CaCl2 was increased to 2 mM, and the basolateral membrane was permeabilized with 250 μg/ml amphotericin B. Short-circuit current was measured in freshly harvested adult mouse colon at 37° C. using symmetrical Krebs-bicarbonate buffer.
(§2) Fischer rat thyroid (FRT) cells stably expressing wild-type human CFTR were cultured on Snapwell inserts (Corning Costar, Corning N.Y., USA) for short-circuit current (Isc) measurements. After 6-9 days in culture, when the transepithelial resistance was >1000 Ω/cm^2, the inserts were mounted in an Ussing chamber system (World Precision Instruments, Sarasota, Fla., USA). The basolateral solution contained 130 mM NaCl, 2.7 mM KCl, 1.5 mM KH2PO4, 1 mM CaCl2, 0.5 mM MgCl2, 10 mM glucose, and 10 mM Na-HEPES (pH 7.3). In the apical bathing solution, 65 mM NaCl was replaced by Na gluconate, and CaCl2 was increased to 2 mM. Both solutions were bubbled with air and maintained at 37° C. The basolateral membrane was permeabilized with 250 μg/ml amphotericin B (26, 27). Hemichambers were connected to a DVC-1000 voltage clamp via Ag/AgCl electrodes and 3 M KCl agar bridges for Isc recording.
Short-circuit current measurement. Short-circuit current was measured in FRT cells stably expressing wild-type human CFTR cultured on porous filters as described. The basolateral solution contained 130 mM NaCl, 2.7 mM KCl, 1.5 mM KH2PO4, 1 mM CaCl2, 0.5 mM MgCl2, 10 mM glucose, and 10 mM Na-HEPES (pH 7.3, 37° C.). In the apical solution 65 mM NaCl was replaced by Na gluconate, and CaCl2 was increased to 2 mM, and the basolateral membrane was permeabilized with 250 μg/ml amphotericin B. Short-circuit current was measured in freshly harvested adult mouse colon at 37° C. using symmetrical Krebs-bicarbonate buffer.
as §2, with “Short-circuit current. Fischer” for “Fischer”
Short-circuit current measurement. Short-circuit current measurements were done as described. Briefly, Snapwell (Corning Costar, Corning, N.Y.) inserts containing CFTR-expressing FRT cells or human bronchial epithelial cells were mounted in Ussing chambers (Physiological Instruments, San Diego, Calif.). For FRT cells the hemichambers were filled with 5 ml of HCO3^−-buffered solution (basolateral) and half-Cl^− solution (apical), and the basolateral membrane was permeabilized with 250 μg/ml amphotericin B. Symmetrical HCO3^−-buffered solutions were used for human bronchial epithelial cells. Solutions were bubbled with 95% O2/5% CO2 and maintained at 37° C., and short-circuit current was measured on a DVC-1000 voltage clamp (World Precision Instruments Inc., Sarasota, Fla.) using Ag/AgCl electrodes and 3 M KCl agar bridges.

human wild-type CFTR [3] = target: T1, human wild-type CFTR; test: Cell-based plate reader (YFP iodide influx) assay of CFTR function; design: expressed in transfected cells; host or cells: Fischer rat thyroid (FRT) cells stably co-expressing YFP-H148Q; conditions: commercial analogs
Description: The initiate rate of I^− influx was computed by determined using exponential regression. All compound plates contained negative controls (DMSO vehicle) and positive controls (20 μM forskolin).
High-throughput screening. […] The initiate rate of I^− influx was computed by determined using exponential regression. All compound plates contained negative controls (DMSO vehicle) and positive controls ([…] forskolin).
Platereader assays of chloride channel function. CFTR activity was assayed as described. […] I^− influx was measured in a plate reader with initial baseline read for 2 s and then for 12 s after rapid addition of an I^−-containing solution. TMEM16A activity was assayed similarly as described using FRT cells co-expressing YFP and TMEM16A. Activity of non-TMEM16A CaCC was assayed as described in HT-29 cells expressing YFP. In each assay initial rates of I^− influx were computed as a linear measure of channel function.

constipation patients = conditions: cited from earlier work
loperamide-treated mice = test: Loperamide-induced mouse model of constipation (3-h stool weight, pellet number, water content); conditions: oral 0.5 mg/kg, loperamide-treated mice

T1 sequence (P13569 whole entry): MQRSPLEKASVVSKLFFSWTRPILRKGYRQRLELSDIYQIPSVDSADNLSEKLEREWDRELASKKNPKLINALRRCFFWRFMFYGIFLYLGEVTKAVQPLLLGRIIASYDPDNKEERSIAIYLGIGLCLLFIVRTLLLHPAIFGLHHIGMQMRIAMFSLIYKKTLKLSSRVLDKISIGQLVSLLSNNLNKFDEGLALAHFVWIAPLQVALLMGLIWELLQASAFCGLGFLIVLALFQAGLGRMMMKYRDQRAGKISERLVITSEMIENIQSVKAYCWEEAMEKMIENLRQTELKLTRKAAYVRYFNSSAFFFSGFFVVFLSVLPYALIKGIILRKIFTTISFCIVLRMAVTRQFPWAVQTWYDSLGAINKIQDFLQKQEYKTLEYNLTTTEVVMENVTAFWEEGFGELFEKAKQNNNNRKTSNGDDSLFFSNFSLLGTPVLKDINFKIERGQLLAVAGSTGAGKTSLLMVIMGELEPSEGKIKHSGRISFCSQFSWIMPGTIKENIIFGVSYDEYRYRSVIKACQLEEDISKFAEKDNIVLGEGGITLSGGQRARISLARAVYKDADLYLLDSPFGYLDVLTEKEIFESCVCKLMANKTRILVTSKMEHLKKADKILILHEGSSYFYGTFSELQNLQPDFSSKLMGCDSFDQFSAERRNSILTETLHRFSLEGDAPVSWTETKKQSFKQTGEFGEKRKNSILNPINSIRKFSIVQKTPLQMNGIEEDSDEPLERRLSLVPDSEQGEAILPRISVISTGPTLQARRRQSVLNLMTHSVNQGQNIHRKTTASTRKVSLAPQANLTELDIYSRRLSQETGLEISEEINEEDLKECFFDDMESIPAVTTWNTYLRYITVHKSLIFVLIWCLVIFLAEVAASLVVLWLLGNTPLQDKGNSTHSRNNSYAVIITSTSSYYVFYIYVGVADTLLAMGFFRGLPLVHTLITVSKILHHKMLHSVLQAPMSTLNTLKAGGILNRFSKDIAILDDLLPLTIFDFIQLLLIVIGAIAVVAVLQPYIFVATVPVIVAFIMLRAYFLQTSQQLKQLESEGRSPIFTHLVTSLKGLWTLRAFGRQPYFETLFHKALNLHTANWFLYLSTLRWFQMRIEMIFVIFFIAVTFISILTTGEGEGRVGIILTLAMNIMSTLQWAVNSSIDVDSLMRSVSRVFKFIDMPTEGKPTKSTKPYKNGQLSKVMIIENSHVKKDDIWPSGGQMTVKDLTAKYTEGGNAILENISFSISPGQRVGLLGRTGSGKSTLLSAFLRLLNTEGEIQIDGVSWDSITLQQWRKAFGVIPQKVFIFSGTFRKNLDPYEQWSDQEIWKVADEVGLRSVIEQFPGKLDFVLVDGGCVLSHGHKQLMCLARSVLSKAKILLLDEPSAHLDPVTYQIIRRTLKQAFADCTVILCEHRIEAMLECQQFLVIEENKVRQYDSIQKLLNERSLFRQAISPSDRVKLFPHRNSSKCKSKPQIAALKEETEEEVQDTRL

| SMILES | change in ocular surface PD in CF mice [1] | CFTR activation, Vmax (human wild-type CFTR [2]) | % Activation (human wild-type CFTR [3]; FRT cells with YFP and wildtype CFTR, 125 nM forskolin) | EC50 (human wild-type CFTR [3]; read-out: EC50 (full-dose response assay, compounds >80% activation)) | patients in whom the drug was effective (constipation patients; chronic constipation patients) | stool output response as % of the maximal CFTRact-J027 response (loperamide-treated mice) | patients in whom the drug was effective (constipation patients; IBS-C patients) |
| --- | --- | --- | --- | --- | --- | --- | --- |
| CNc1nc(Nc2ccc([N+](=O)[O-])cc2)nc(OCC(F)(F)C(F)F)n1 [K032] | no changes in PD | ~50 % Vmax | 105% | 70 nM |  |  |  |
| C[C@@H]1NC(=O)[C@@H]2CCCN2C(=O)[C@H](CC(N)=O)NC(=O)[C@@H]2CSSC[C@H](N)C(=O)N[C@H]3CSSC[C@H](NC1=O)C(=O)N[C@@H]([C@@H](C)O)C(=O)NCC(=O)N[C@H](C(=O)N[C@@H](Cc1ccc(O)cc1)C(=O)O)CSSC[C@H](NC(=O)[C@H](Cc1ccc(O)cc1)NC(=O)[C@H](CCC(=O)O)NC3=O)C(=O)N2 [linaclotide, reference compound] (H-CCEYCCNPACTGCY-OH; disulfide 1-6, 2-10, 5-13) |  |  |  |  | ~20% | 35% |  |
| CCCCC(F)(F)[C@@]1(O)CC[C@H]2[C@@H](CC(=O)[C@@H]2CCCCCCC(=O)O)O1 [lubiprostone, reference compound] |  |  |  |  |  | 50% | ~13% |
